Values after ≈ are worked out from the molar mass of the structure shown.
Assays:
[1] = Psychostimulating activity, symptom score; type: in vivo, mice; conditions: tested substances perorally 300 mg/kg, one hour after; maximum 30 points, more than 12 significant
[2] = tested on: Herpes virus of the type I (HSV-I/Leningrad/248/88); test: Effect on Herpes virus, cytopathogenic action on Vero cells; type: cell-based, Herpes Simplex virus; conditions: compound 100 μg/ml; for Quantity of the unchanged cells (number of cells in 100 visual fields): Vero cells, 36 hours, cell control 10000; for percentage of protection of cells from virus: compared to the control of cell culture
Protocol: An antiviral activity was determined with respect to Herpes virus of the type I (HSV-I/Leningrad/248/88) by means of commonly accepted method. Viruses were grown on a continuous culture of Vero cells that have been received from the Bank of Cell Cultures of the Institute of Cytology of the Russian Academy of Science.
A virus in a final concentration of […] and the claimed compounds dissolved in DMSO in final concentrations of 100, 10 and 1 mg/l were added to cells that were grown on the RPMI-1640 medium with 10% fetal calf serum and placed into wells of the 96-well plate. 5 separate wells were used for each of tested concentrations of an agent. The plate was incubated during 60 minutes at 38° C. in a CO2-incubator. After the incubation, the virus was removed and then a fresh medium containing claimed compounds in used concentrations was again introduced.
Results were evaluated basing on presence of cytopathogenic action on the cells after 36 hours of incubation at 38° C. in the CO2-incubator.
The next controls were used in the experiment: • 1. Control of cell culture (capability to grow properly) • 2. Control of the virus (evaluation of capability for reproduction) • 3. Control of an antiviral activity of an antiviral drug Acyclovir • 4. Control of compounds (toxicity of compounds) • 5. Control of a solvent (DMSO) for toxicity.
To estimate a cytopathic action of the virus, a quantity of the unchanged cells was calculated in 100 visual fields formed by a special net of an eyepiece of the inverted microscope.

C.trachomatis D323 = test: Action on Chlamydia trachomatis in cell culture; type: cell-based; conditions: 100 mg/l
Protocol: The antimicrobial activity of the claimed compounds was studied relative to C.trachomatis […], which is a standard strain from the collection of the chair of microbiology of St. Petersburg State Pavlov Medical University. […] Cell cultures McCoy and L929 obtained from the Institute of Cytology of RAS were used in this work. Cells were grown in flasks made of neutral glass in the medium RPMI-1640 with the addition of 10% of fetal calf serum. The test was performed in glass (non-toxic) flat-bottom flasks with cover glasses. The cells were introduced into the medium in the final concentration of […]. […] Simultaneously, tested compounds in a final concentration of 100 mg/l were added to the cells. The sample was centrifuged at 2400 G during 60 minutes at room temperature and incubated at 37° C. for 2 hours. […] The samples were doubled using the medium without cycloheximide so as to exclude its effect on the investigated compounds. The samples were incubated in a CO2-incubator for 48 hours. […] The effect of the action of substance was determined by analysis of the monolayer state and number of cells with CPI when compared with the control (cell culture infected with C.trachomatis […]); in doing so, the number of unchanged cells, that were counted in 100 visual fields obtained using the special net of the microscope eyepiece, was taken into consideration. […] Control of cell culture: morphology of cells and state of monolayer correspond to the given type of the cells; control of chlamydia growth in the cell culture: presence of CPI in the monolayer; control of action of standard antimicrobial agent: reduction of number of CPI in the monolayer as compared to the previous control; control of toxicity of the claimed compounds: toxicity is absent; control of action of solvents: toxic action on cells is absent.

[3] = tested on: Human's platelet aggregation; test: Antiaggregational properties, ADP-induced platelet aggregation; type: cell-based; conditions: 100 μg/ml, ADP […], platelet-enriched human plasma
Description: Human's platelet aggregation was investigated in plasma of healthy 50±3 years donors that was enriched by thrombocytes, by means of aggregometer FRM-1. […] Magnitude of a maximum non-reversible platelet aggregation in the control samples (solvent) was adopted as 100%, and that in tested samples was counted as the percentage compared to the control.

[4] = Psychodepressive activity, behavioral score; type: in vivo, mice; conditions: per oral 300 mg/kg, one hour after dosing; total 60, less than 40 significant
Protocol: Each parameter scores 2 points for an each mouse that had unchanged behavior. The total point sum was 60 (2×10×3 mice). Reducing score to less than 40 one hour after dosing with a substance per oral (300 mg/kg) denoted significant behavioral depression. Haloperidol was utilized as a reference agent.

[5] = Hypoglycemic activity after glucose load; type: in vivo, mice; conditions: 100 mg/kg perorally, glucose 1000 mg/kg s.c.; for Glucose in blood: after one hour, glucose control 8.26 ± 0.50
Protocol: Test substance (100 mg/kg) was perorally administrated to fasted mice, and, immediately after that, solution of glucose (1000 mg/kg) was administrated subcutaneously. Glucose content in blood was determined in a hour by the orthotoluidine method. Reducing of glucose level by more than 20% relative to control animals indicated hypoglycemic properties. Glibenclamide (I mg/kg) was utilized as a reference agent.

[6] = Antiulcerous action, water immersion stress with immobilization; type: in vivo, rats; conditions: 20 mg/kg perorally; for % of animals with ulcers: rats, 4 hours stress, control 100; for % of reducing number of ulcers / % of reducing ulceration index: versus control; for Number of lesions: control 8.3 ± 2.5; for ulceration index: control 10.5 ± 5.7
Protocol: Antiulcerous activity of substances was tested on a model of experimental water immersion stress with immobilization. […] After that, gastric mucous membrane was investigated, number and sizes of ulcers were counted, ulceration index was determined (an average sum of ulcer lengths per one animal in a group).

[7] = Hepatoprotective activity, CCl4 liver damage (AlAT); type: in vivo, rats
Protocol: CCl4 dissolved in 50% olive oil (1 ml/kg) was subcutaneously administrated to rats. Test substances were administrated perorally in a dose of 20 mg/kg 30 minutes before and 7 hours after the CCL4 administration. The activity of alanine-aminotranspherase (AlAT), which is a marker enzyme of liver parenchyma damage, was assessed twenty-four hours later. Reducing of enzyme amount by more than 30% relative to the control group was considered as evidence of hepatoprotective properties of the substance.
Silymarin in a dose of 100 mg/kg was used as a reference agent.

[8] = Antioxidant action, riboflavine chemiluminescence; type: biochemical; conditions: solvent water, phosphate buffer pH 9.1
Description: To assess a general antioxidant activity the method of riboflavine chemiluminescence was used. The test substance was introduced into a system consisted of phosphate buffer (pH 9.1), solution of riboflavine, and solution of bivalent iron sulfate. Chemiluminescence was initiated by 0.1% solution of hydrogen peroxide and registered by means of luminometer. […] Ascorbic acid was used as a reference agent.

[9] = Determination of maximal tolerable dose; type: in vivo; conditions: oral administration, mice, observed 72 hours; 300 was the maximally utilized one
Protocol: Tested substance was introduced perorally (in dose of 300 mg/kg) through a gastric tube or intraperitoneally (in dose of 100 mg/kg) to no-breed white mice with mass 18-20 g (each tested group consisted of 3 males and 3 females). Then the mouse state was observed during 72 hours. Absence of symptoms characteristic of toxic effects, or absence of animal death during the given time allows to make a conclusion that the toxicity of the test substance is low. If acute toxicity effects are observed, the dose is reduced to find maximal tolerable dose.

[10] = tested on: primary culture of human lymphocytes (IFN-α production); test: Interferon-inducing activity in primary culture of human lymphocytes; type: cell-based
Protocol: Interferon synthesis induction caused by the claimed compounds was conducted on a primary culture of human lymphocytes (it is these cells in a human organism that are the main producers of interferons). To obtain lymphocyte culture, fresh blood (within 12 hours after sampling) from healthy donors (not of group II) was used. To separate lymphocytes, heparinized blood obtained from healthy donor was centrifuged in a density gradient of ficoll-verografin of […] in order to extract a fraction of immunocompetent cells. This fraction was selected and diluted with the nutrient medium RPMI-1640, containing 5% of fetal calf serum, 0.3 mg/ml of L-glutamin, 100 un/ml of penicillin, and […] of streptomycin. The concentration of lymphocytes was considered after dying them with methylene blue and calculation of cell number in Goryaev chamber. Initial solutions of the claimed compounds were diluted with the nutrient medium RPMI-1640 so that the final concentrations of the compounds, which were obtained after introduction of lymphocyte suspension, constituted the raw: 100 μg/ml, 10 μg/ml, 1 μg/ml. The final concentration of lymphocytes in the induction mixture was 3×10^6 cell/ml.
In parallels to the test samples the following controls were done: • 1). Control of spontaneous production of interferons (IFN) by lymphocytes. • 2). […] Control of spontaneous production of interferons in presence of DMSO taken in an amount corresponding to the test samples.
Control and test samples were incubated for 24 hours at the temperature of 37° C. After incubation, the samples were centrifuged at 2,000 G to deposit cell elements, and IFN-containing supernatant was separate out of samples; then the supernatant was analyzed for the quantitative content of IFN. Cell deposition was resuspended in the previous volume of nutrient medium, coloured with vital dye trypan blue, and cell number was counted in the Goryaev chamber (as described above) to determine cytotoxic action of the compounds. The quantitative determination of content of IFN in control and test samples was conducted using the immunoenzyme test system Pro Con IF2 Plus, that is intended for determination of IFN-α, which is produced by TOO “Protein contour”. The solid-phase immunoenzyme method, utilizing horse radish peroxidase as an indicator enzyme, was used to determine the quantity of interferon in the samples. Activity of the bonded peroxidase was measured using an automatic photometer for microplates with a microprocessor at the wavelength of 450 nm.
Based on the obtained results, a calibrating curve was formed, which allows to obtain data expressed in international units (IU) of activity, using the microprocessor of the automatic photometer. The results of the analysis are expressed in IU of activity of IFN per ml in the given induction system, which contains 3×10^4 lymphocyte/ml. Each test and control point was investigated in four parallels.
Controls of immunoenzyme reaction: • 1. Control of DMSO with a nutrient medium. • 2. Control of system components (according to an instruction).
The obtained data were undergone a statistical analysis using t-criterion, and calculation of the confident interval of probability at p=0.05 was carried out. Coincidence of results in the parallel tests was analyzed.

[11] = tested on: cholesterol synthesis by human's fibroblasts; test: Inhibition of cholesterol synthesis in human's fibroblasts; type: cell-based; conditions: 400 ng/ml, [2-14C] acetate incorporation, 4 hours
Protocol: Influence of the substance (400 ng/ml) on cholesterol synthesis by human's fibroblasts was investigated. […] The spots corresponding to cholesterol were removed from a plate to a vial and then were coated with scintillation liquid; after that radioactivity was measured expressed as pulse/min/mg of cell protein. Lovastatin taken in the same concentration as the tested substance was utilized as a reference agent.

Structure (SMILES)	Quantity of the unchanged cells (number of cells in 100 visual fields) [2]	percentage of protection of cells from virus [2]	% of inhibition of platelet aggregation [3] [%]	% change of glucose relative to glucose control [5] [%]	Glucose in blood [5] [mmol/L]	% of animals with ulcers [6] [%]	% of reducing number of ulcers [6] [%]	% of reducing ulceration index [6] [%]	Number of lesions [6]	ulceration index [6]	IC50, suppressing chemiluminescence by 50% [8] [mg/L]	other results
CN1CCc2cccc3c2[C@H]1Cc1ccc(O)c(O)c1-3 [Apomorphine, reference compound]	–	–	–	–	–	–	–	–	–	–	–	Number of points (psychostimulation) [1]: 19
O=C1NC(=O)N(c2ccc(F)cc2)C(=O)C1=NO [XXVII]	6500	(65%)	24.3 ± 4.8	−12	7.26 ± 0.41	67	−79	−88	1.7 ± 1.3	1.3 ± 1.0	13.00 (≈ 51.8 µM)	percentage of cell protection from infection (C.trachomatis D323): (65%); Number of unchanged cells (C.trachomatis D323; 48 hours, counted in 100 visual fields, cell control 8.000, infected cells 6.000): 7.300; Point number (behavioral depression) [4]: 31; AlAT ([7]; 20 mg/kg perorally 30 minutes before and 7 hours after CCl4, 24 hours, CCl4 control 0.83 ± 0.21, intact 0.27 ± 0.04): 0.42 ± 0.08 mmol/L/h; % of reducing AlAT ([7]; 20 mg/kg perorally, relative to CCl4 control): −49%
O=C1NC(=O)N(c2cccc(C(F)(F)F)c2)C(=O)C1=NO [XXXII]	5000	(50%)	64.3 ± 6.2	−14	7.10 ± 0.28	100	−52	−64	4.0 ± 1.3	3.8 ± 1.5	6.40 (≈ 21.2 µM)	Maximal tolerable dose, concentration of test substances [9]: 300 mg/kg; Content of IFN in induction mixture after 24-hour incubation ([10]; substance 1 mg/l): 12.5 ± 1.0 IU/3 × 10^4 lymph./ml; Content of IFN in induction mixture after 24-hour incubation ([10]; substance 10 mg/l): 77.5 ± 1.5 IU/3 × 10^4 lymph./ml; Content of IFN in induction mixture after 24-hour incubation ([10]; substance 100 mg/l): 126.5 ± 1.6 IU/3 × 10^4 lymph./ml; % of inhibition of cholesterol synthesis [11]: 23.5%
CC[C@H](C)C(=O)O[C@H]1C[C@@H](C)C=C2C=C[C@H](C)[C@H](CC[C@@H]3C[C@@H](O)CC(=O)O3)[C@H]21 [Lovastatin, reference compound]	–	–	–	–	–	–	–	–	–	–	–	inhibition at 0.4 µg/mL ([11]; Homo sapiens, Fibroblast): 76.4%
